Entries after “also recorded” stand apart in the source; their conditions may differ. Where two headings read alike, the source gives them in different places.
Key:
[1] = system: local brachial artery vasodilatation; assay: Local brachial artery vasodilatation after bolus infusion (Rassaf et al.); format: in vivo, human; conditions: for relative effectiveness (intravenous NO : SNP : GSNO): ratio, intravenous NO = 1
Procedure: SNP has also been compared to intravenous NO, where intravenous NO, SNP, and S—NO-glutathione (GSNO) were shown by Rassaf et al. to have relative “maximally effective doses” administered as bolus infusions in local brachial artery vasodilatation of 6 μM, 34 nM, and 5 nM respectively. (Rassaf et al., Evidence for in vivo transport of bioactive nitric oxide in human plasma, J. Clin. Invest. 109:1241-1248 (2002).) This puts the relative effectiveness of intravenous NO, SNP, and GSNO at 1:176:1200. There were significant differences in the temporal course of vasodilatation induced through the above treatments. […] Thus GSNO is roughly 7 times more “effective” at getting “NO active species” to peripheral GC than is SNP. Presumably then, a dose of about 0.1 μM/kg/hr of GSNO would have a vasodilatation effect equivalent to 0.75 μM/kg/hr SNP. The basal nitrate excretion is about 1 μM/kg/hr. If we assume that the vasodilatory effects of 0.75 μ/kg/hr SNP are on the “same order” as the indigenous NO already produced, then the 0.1 μkg/hr GSNO represents an increase in “effective NO” of […] over basal levels.

[2] = system: local brachial artery vasodilatation; conditions: bolus infusion, cited from earlier work
Human Mast Cell Adhesion = conditions: cited from earlier work
NOS [3] = conditions: in vivo; cited from earlier work
NO synthesis = conditions: in vivo; cited from earlier work
[4] = hyperbaric O2; cited from earlier work
[5] = type 2 diabetics; cited from earlier work
AAOB = conditions: cited from earlier work
N. europaea = conditions: cited from earlier work
N. mobilis = conditions: cited from earlier work
N, multiformis = conditions: cited from earlier work
[6] = system: Nitrosospira sp. strain AV; conditions: cited from earlier work
[7] = compared with estrogen; cited from earlier work
guanylyl cyclase (GC) = target: T1, guanylyl cyclase (GC) (Homo sapiens, UniProt Q02153); conditions: read-out: apparent EC50 for guanylyl cyclase activation, cited from earlier work
T1 construct: Soluble Guanylyl Cyclase, in Intact Cerebellar Cells; host or cells: intact cerebellar cells (endogenous)
T1 sequence (Q02153 1-619): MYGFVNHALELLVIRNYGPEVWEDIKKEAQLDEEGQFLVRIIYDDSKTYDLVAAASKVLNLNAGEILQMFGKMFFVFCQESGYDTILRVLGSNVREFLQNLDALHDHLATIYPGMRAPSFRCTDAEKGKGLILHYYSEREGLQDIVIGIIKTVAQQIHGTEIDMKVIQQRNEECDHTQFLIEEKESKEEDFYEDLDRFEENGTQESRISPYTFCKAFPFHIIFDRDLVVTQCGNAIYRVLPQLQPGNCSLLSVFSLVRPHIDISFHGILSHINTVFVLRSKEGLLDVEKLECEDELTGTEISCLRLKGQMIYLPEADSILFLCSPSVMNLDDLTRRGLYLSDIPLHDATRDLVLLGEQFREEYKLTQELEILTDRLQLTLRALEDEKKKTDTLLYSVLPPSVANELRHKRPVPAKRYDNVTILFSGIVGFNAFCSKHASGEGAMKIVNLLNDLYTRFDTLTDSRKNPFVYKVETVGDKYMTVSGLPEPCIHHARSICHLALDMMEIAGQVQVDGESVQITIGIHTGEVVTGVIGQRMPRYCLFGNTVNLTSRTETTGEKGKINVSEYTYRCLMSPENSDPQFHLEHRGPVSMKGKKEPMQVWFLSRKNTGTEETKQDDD
T1 sequence (Q02108 1-690 partner): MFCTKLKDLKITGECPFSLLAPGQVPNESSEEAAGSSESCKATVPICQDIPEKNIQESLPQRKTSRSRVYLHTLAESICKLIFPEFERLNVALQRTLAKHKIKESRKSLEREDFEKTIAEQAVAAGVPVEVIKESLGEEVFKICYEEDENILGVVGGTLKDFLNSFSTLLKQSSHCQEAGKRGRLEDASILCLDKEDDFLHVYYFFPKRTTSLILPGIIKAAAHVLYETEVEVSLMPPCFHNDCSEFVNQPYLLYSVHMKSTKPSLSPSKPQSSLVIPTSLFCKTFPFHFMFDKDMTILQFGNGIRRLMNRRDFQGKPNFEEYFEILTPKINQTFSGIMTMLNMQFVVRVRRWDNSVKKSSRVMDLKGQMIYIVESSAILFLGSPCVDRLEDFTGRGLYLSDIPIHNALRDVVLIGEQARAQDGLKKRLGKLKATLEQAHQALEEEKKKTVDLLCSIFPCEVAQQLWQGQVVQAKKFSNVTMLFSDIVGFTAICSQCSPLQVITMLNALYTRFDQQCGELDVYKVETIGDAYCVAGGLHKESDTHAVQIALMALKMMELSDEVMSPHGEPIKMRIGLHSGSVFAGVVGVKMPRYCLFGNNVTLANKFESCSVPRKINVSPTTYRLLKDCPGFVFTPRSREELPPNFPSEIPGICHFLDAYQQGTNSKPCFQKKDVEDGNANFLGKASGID

[8] = inhaled NO at 80 ppm in >90% O2 (16 μM/min=14 μM/kg/hr); cited from earlier work
NOS [9] = conditions: horse, cited from earlier work
NOS [10] = conditions: chronic inhibition of NOS; cited from earlier work
NOS [11] = conditions: chronic inhibition of NOS; cited from earlier work; remark: listed apart in the source
ammonia monooxygenase = target: T2, ammonia monooxygenase (Nitrosomonas europaea, UniProt Q04507+Q04508); conditions: cited from earlier work
T2 construct: endogenous in cells; host or cells: autotrophic ammonia oxidizing bacteria (AAOB), mixed and unspecified, e.g. in waste water
T2 sequence (Q04507 1-276): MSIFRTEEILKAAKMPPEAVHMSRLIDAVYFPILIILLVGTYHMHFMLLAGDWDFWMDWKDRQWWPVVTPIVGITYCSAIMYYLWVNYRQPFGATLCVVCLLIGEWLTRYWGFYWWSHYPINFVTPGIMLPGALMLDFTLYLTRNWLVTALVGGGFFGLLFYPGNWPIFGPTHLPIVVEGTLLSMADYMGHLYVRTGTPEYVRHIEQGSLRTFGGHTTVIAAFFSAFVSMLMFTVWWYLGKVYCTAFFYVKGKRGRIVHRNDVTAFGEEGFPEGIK
T2 sequence (Q04508 26-420): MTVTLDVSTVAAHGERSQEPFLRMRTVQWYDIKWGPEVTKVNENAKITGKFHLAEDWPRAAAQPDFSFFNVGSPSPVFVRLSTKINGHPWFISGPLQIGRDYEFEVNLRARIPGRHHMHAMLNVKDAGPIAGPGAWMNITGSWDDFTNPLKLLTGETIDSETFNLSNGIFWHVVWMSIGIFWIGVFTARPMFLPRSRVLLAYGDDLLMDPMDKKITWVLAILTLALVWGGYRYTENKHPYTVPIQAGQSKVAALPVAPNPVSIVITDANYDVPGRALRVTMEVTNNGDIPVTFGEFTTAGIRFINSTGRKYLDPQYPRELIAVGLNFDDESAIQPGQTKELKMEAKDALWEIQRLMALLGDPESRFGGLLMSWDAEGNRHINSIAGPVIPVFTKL

[12] = physiologic concentrations of CP; cited from earlier work
[13] = system: murine macrophage cells (RAW264); conditions: CP 2 μM/L in Krebs-Ringer-phosphate, absence of hemoglobin; cited from earlier work

## N[C@@H](CCC(=O)N[C@@H](CSN=O)C(=O)NCC(=O)O)C(=O)O [GSNO, S-nitrosoglutathione]
[1]; GSNO versus SNP
  effectiveness at getting NO active species to peripheral GC relative to SNP: roughly 7 times
[1]
  relative effectiveness (intravenous NO : SNP : GSNO): 1200
[2]
  maximally effective dose, local brachial artery vasodilatation: 0.005 µM
Human Mast Cell Adhesion
  mast cell adhesion: strongly down regulated

## NC(=NCCC[C@H](N)C(=O)O)N[N+](=O)[O-] [L-NNA, N-nitro-L arginine]
NOS [3]
  wake-sleep differences in cerebral blood flow: abolishes wake-sleep differences in cerebral blood flow
NO synthesis
  reduction in basal temperature following hypoxia: greatly diminished

## N=C(N)NCCC[C@H](N)C(=O)O [L-arginine]
[4]
  latency to seizure: increase the latency to seizure
[5]
  forearm blood flow: increases forearm blood flow
  insulin sensitivity: increases insulin sensitivity

## S-nitroso-N-acetylpenicilamine [SNAP]
[4]
  latency to seizure: significantly shortens

## linear alkylbenzene sulfonates [LAS]
AAOB
  toxicity to AAOB: toxic to AAOB at ppm levels
AAOB; listed as linear alkyl benzene sulfonate detergents
  toxicity to AAOB: killed by ppm levels

## CCCCCCCCCCC(C)c1ccc(S(=O)(=O)O)cc1 (centres unmarked) [4-(2-dodecyl)benzenesulfonic acid]
N. europaea
  50% inhibitory concentration (IC50): 5 µg/mL (ppm)
N. mobilis
  50% inhibitory concentration (IC50): 3 µg/mL (ppm)
N, multiformis
  50% inhibitory concentration (IC50): 1 µg/mL (ppm)
[6]
  50% inhibitory concentration (IC50): 1 µg/mL (ppm)

## O=[N+]([O-])OCC(CO[N+](=O)[O-])O[N+](=O)[O-] [nitroglycerin]
[7]
  prevention of bone loss: as effective as estrogen to prevent bone loss

## [N]=O [NO, nitric oxide]
[1]
  relative effectiveness (intravenous NO : SNP : GSNO): 1
Guanylyl cyclase (GC); rapid (˜100 ms) activation
  EC50: ~45 nM
Guanylyl cyclase (GC); slow (˜1 to 10 sec) activation
  EC50: ~20 nM
[8]
  change in mean arterial pressure: no change in mean arterial pressure
[2]; intravenous
  maximally effective dose, local brachial artery vasodilatation: 6 µM

## COC(=O)[C@@H](N)CCCNC(=N)N[N+](=O)[O-] [L-NAME, N(G)-nitro-L-arginine methyl ester]
NOS [9]; L-NAME group (control 62.5)
  VCO2max: 61.0 L/min
NOS [9]; L-NAME group
  reduction of cardiac output: 12%
NOS [10]
  fibrosis of heart and kidneys: generalized fibrosis of the heart and kidneys
NOS [11]
  total (pancreatic islet) NO production: can increase NO levels at particular sites; also recorded: increases total pancreatic islet NO production

## C=CCNC(N)=S [Allylthiourea]
Ammonia monooxygenase
  inhibition of ammonia monooxygenase: very effective at inhibiting ammonia monooxygenase

B1: CP: ceruloplasmin, the main Cu containing serum protein (protein, UniProt P00450 20-1065, looked up)
Ceruloplasmin: KEKHYYIGIIETTWDYASDHGEKKLISVDTEHSNIYLQNGPDRIGRLYKKALYLQYTDETFRTTIEKPVWLGFLGPIIKAETGDKVYVHLKNLASRPYTFHSHGITYYKEHEGAIYPDNTTDFQRADDKVYPGEQYTYMLLATEEQSPGEGDGNCVTRIYHSHIDAPKDIASGLIGPLIICKKDSLDKEKEKHIDREFVVMFSVVDENFSWYLEDNIKTYCSEPEKVDKDNEDFQESNRMYSVNGYTFGSLPGLSMCAEDRVKWYLFGMGNEVDVHAAFFHGQALTNKNYRIDTINLFPATLFDAYMVAQNPGEWMLSCQNLNHLKAGLQAFFQVQECNKSSSKDNIRGKHVRHYYIAAEEIIWNYAPSGIDIFTKENLTAPGSDSAVFFEQGTTRIGGSYKKLVYREYTDASFTNRKERGPEEEHLGILGPVIWAEVGDTIRVTFHNKGAYPLSIEPIGVRFNKNNEGTYYSPNYNPQSRSVPPSASHVAPTETFTYEWTVPKEVGPTNADPVCLAKMYYSAVEPTKDIFTGLIGPMKICKKGSLHANGRQKDVDKEFYLFPTVFDENESLLLEDNIRMFTTAPDQVDKEDEDFQESNKMHSMNGFMYGNQPGLTMCKGDSVVWYLFSAGNEADVHGIYFSGNTYLWRGERRDTANLFPQTSLTLHMWPDTEGTFNVECLTTDHYTGGMKQKYTVNQCRRQSEDSTFYLGERTYYIAAVEVEWDYSPQREWEKELHHLQEQNVSNAFLDKGEFYIGSKYKKVVYRQYTDSTFRVPVERKAEEEHLGILGPQLHADVGDKVKIIFKNMATRPYSIHAHGVQTESSTVTPTLPGETLTYVWKIPERSGAGTEDSACIPWAYYSTVDQVKDLYSGLIGPLIVCRRPYLKVFNPRRKLEFALLFLVFDENESWYLDDNIKTYSDHPEKVNKDDEEFIESNKMHAINGRMFGNLQGLTMHVGDEVNWYLMGMGNEIDLHTVHFHGHSFQYKHRGVYSSDVFDIFPGTYQTLEMFPRTPGIWLLHCHVTDHIHAGMETTYTVLQNEDTKSG
[12]
  increase in formation of GSNO from NO and GSH: approximately 100 times
[13]
  conversion of authentic NO to RSNO (recovered NAC—NO): ≤ 33%
